Structures are written as SMILES.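 Five concentrations, 48 hours, 96-well plates. The concentration for 50% growth inhibition is given as GI50. TGI is the concentration that stops growth completely.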

Among the test systems are HCC-2998 colon; HCT-116 colon; RPMI-8226 leukemia; SNB-75 CNS; UACC-257 melanoma; LOX IMVI melanoma; NCI-H23 lung; HS 578T breast; MDA-MB-231 breast; MCF7 breast.
Experiment in all cases: NCI anticancer screen, dose series, 48 h

As for `CC1=NNC(=O)C2CCC(=O)N12` (stereo not drawn), the TGI in the assay with HCC-2998 colon, in the assay on HCT-116 colon, in the assay on RPMI-8226 leukemia, in the assay on SNB-75 CNS and in the assay on UACC-257 melanoma was > 100 µM in each case.
For the compound `Cc1ccc(Cc2c(=O)[nH]nc3ccccc23)cc1`, the TGI in the assay on HCC-2998 colon, with HCT-116 colon, in the assay on LOX IMVI melanoma, with NCI-H23 lung, with RPMI-8226 leukemia and in the assay on SNB-75 CNS was > 100 µM throughout. Further, the TGI in the assay with UACC-257 melanoma was > 100 µM.
For `CC1(C)COC(c2cccnc2/C=N/O)=N1`, the TGI with HCT-116 colon, in the assay on LOX IMVI melanoma, with NCI-H23 lung, in the assay with SNB-75 CNS and with UACC-257 melanoma was > 100 µM throughout.
As for `O=[N+]([O-])c1ccc(C2=Nn3cnnc3SC2)o1`, the TGI in the assay on HCC-2998 colon was 29.2 µM; in the assay on HCT-116 colon it was 30.8 µM; in the assay on LOX IMVI melanoma, 5.99 µM; in the assay on RPMI-8226 leukemia it was 42.5 µM; with SNB-75 CNS, 51.7 µM; in the assay with UACC-257 melanoma, 29.6 µM.
`N#CC(N)(C(=O)CCC(=O)Nc1cccc(Cl)c1)c1ccc(Cl)cc1` (stereo not drawn): the TGI in the assay on HCT-116 colon, in the assay with NCI-H23 lung, with RPMI-8226 leukemia, with SNB-75 CNS and with UACC-257 melanoma was > 100 µM throughout.
With `N#Cc1nc(Nc2cccc3ccccc23)sc1N`, the TGI in the assay on HCC-2998 colon was 41.2 µM; in the assay with HCT-116 colon, > 100 µM; in the assay on LOX IMVI melanoma, 33.4 µM; in the assay on NCI-H23 lung it was 47.2 µM; with RPMI-8226 leukemia, 72 µM; in the assay with SNB-75 CNS, > 100 µM. Moreover, in the assay on UACC-257 melanoma, the TGI came out at 41.1 µM.
In the case of `COC(=O)C1=C(O)c2cc(OC)c(OC)cc2C(c2ccc(OC)c(OC)c2)C1` (stereo not drawn), the TGI with HCC-2998 colon, in the assay with HCT-116 colon, in the assay with LOX IMVI melanoma, in the assay with NCI-H23 lung, in the assay with RPMI-8226 leukemia and in the assay on SNB-75 CNS was > 100 µM throughout. Also, the TGI with UACC-257 melanoma was > 100 µM.
Turning to `CCCCC(C(=O)C(=O)NC1C2CC3CC(C2)CC1C3)C(=O)C(C)C` (stereo not drawn), the TGI in the assay on HCC-2998 colon, with HCT-116 colon, with LOX IMVI melanoma, with NCI-H23 lung, in the assay on RPMI-8226 leukemia and in the assay on SNB-75 CNS was > 100 µM each time. The TGI with UACC-257 melanoma was > 100 µM.
Take `CC(C)c1ccc2c(c1)CC[C@@H]1[C@@](C)(C(=O)O)CCC[C@]21C`: the GI50 was 6.07 µM in the assay on HCC-2998 colon; 6.9 µM in the assay with HCT-116 colon; 3.08 µM in the assay on HS 578T breast; 3.43 µM with LOX IMVI melanoma; 1.31 µM with MDA-MB-231 breast; 2.47 µM with RPMI-8226 leukemia. Further, the GI50 with UACC-257 melanoma was 0.33 µM. For the same compound, the TGI in the assay on HCC-2998 colon is 22.3 µM; in the assay on HCT-116 colon it was 19.8 µM; with HS 578T breast, 9 µM; with LOX IMVI melanoma, 16.8 µM; with MDA-MB-231 breast, 6.04 µM; in the assay with RPMI-8226 leukemia it was 6.19 µM. This compound came in with a TGI with UACC-257 melanoma of 3.86 µM.
As for `CC(C)c1ccccc1NC(=O)CCc1n[nH]c(=S)o1`, the TGI was > 100 µM with HCC-2998 colon; > 100 µM with HCT-116 colon; > 100 µM with LOX IMVI melanoma; > 100 µM in the assay with NCI-H23 lung; > 72.1 µM in the assay on RPMI-8226 leukemia; > 100 µM with SNB-75 CNS. Also, the TGI with UACC-257 melanoma was > 100 µM.
For the compound `S=C(Nc1ccccc1)N(/N=C/C=C/c1ccccc1)c1nnc(-c2ccccc2)c(-c2ccccc2)n1`, the TGI with HCC-2998 colon, with LOX IMVI melanoma, in the assay on NCI-H23 lung, with RPMI-8226 leukemia, in the assay on SNB-75 CNS and with UACC-257 melanoma was > 100 µM throughout.
As to `COc1cc2nc(-c3ccc(Cl)cc3)cc(OCCCN3CCCCC3)c2cc1OC`, the GI50 was 0.828 µM with HCT-116 colon; 2.11 µM in the assay with HS 578T breast; 1.55 µM in the assay with MCF7 breast; 0.666 µM in the assay with MDA-MB-231 breast; 2.95 µM in the assay on NCI-H23 lung; 1.98 µM in the assay with SNB-75 CNS. In addition, the GI50 with UACC-257 melanoma was 1.92 µM. Besides, the TGI was > 100 µM with HCT-116 colon; 7.18 µM in the assay with HS 578T breast; 4.11 µM with MCF7 breast; 4 µM in the assay on MDA-MB-231 breast; > 100 µM in the assay with NCI-H23 lung; 6.19 µM in the assay on SNB-75 CNS. Besides, the TGI in the assay with UACC-257 melanoma came out at 4.46 µM.
Regarding `Cn1c2c(c3ccccc31)C1CCCCCCC1C1C(=O)OC(=O)C21` (stereo not drawn), the TGI was 70.3 µM with HCC-2998 colon; 51.2 µM with LOX IMVI melanoma; > 100 µM with NCI-H23 lung; 61.2 µM in the assay on RPMI-8226 leukemia; > 100 µM with SNB-75 CNS.
`CC(=O)c1cccc(NC(=O)C(=O)NNc2n[nH]c(=S)n2N)c1`: the TGI was determined as 27.5 µM in the assay with HCC-2998 colon; 12.8 µM in the assay with HCT-116 colon; 7.48 µM in the assay on HS 578T breast; 4.57 µM with LOX IMVI melanoma; 18.7 µM in the assay with MCF7 breast; 11.4 µM in the assay with NCI-H23 lung. Besides, the results for the TGI with RPMI-8226 leukemia, in the assay with SNB-75 CNS and with UACC-257 melanoma were 58.8 µM, 25.2 µM and 9.17 µM, respectively.
For `COc1cc(C(Cc2ccccc2)NC(C)=O)oc(=O)c1` (stereo not drawn), the TGI in the assay with HCC-2998 colon, in the assay on LOX IMVI melanoma, in the assay on NCI-H23 lung, with RPMI-8226 leukemia, in the assay with SNB-75 CNS and in the assay with UACC-257 melanoma was > 100 µM in each case.
`CCOc1ccccc1C=C1c2ccccc2C(=O)c2ccccc21`: the TGI with HCC-2998 colon was 21.9 µM; with HCT-116 colon, 29.5 µM; in the assay on LOX IMVI melanoma, > 100 µM; in the assay on NCI-H23 lung, > 100 µM; in the assay on RPMI-8226 leukemia, 23.2 µM; in the assay with UACC-257 melanoma, 47 µM.
`CC1=C(C(=O)Nc2ccccc2)C(c2ccccc2)C(C(=O)Nc2ccccc2)=C(C)N1`: the TGI in the assay on HCC-2998 colon, in the assay on HCT-116 colon, in the assay with NCI-H23 lung, in the assay with SNB-75 CNS and with UACC-257 melanoma was > 100 µM throughout.
As to `CN(C)c1ccc(C(C=C2c3ccccc3Sc3ccccc32)=C(C#N)C#N)cc1`, the TGI in the assay with HCC-2998 colon was > 100 µM; with HCT-116 colon it was > 100 µM; in the assay with LOX IMVI melanoma, > 100 µM; in the assay with NCI-H23 lung, > 100 µM; in the assay on RPMI-8226 leukemia, > 100 µM; with SNB-75 CNS, 89.9 µM. Also, in the assay with UACC-257 melanoma, the TGI is > 100 µM.

Values taken from PubChem BioAssay (NCI).
